Reference: paper PMC8286840, “Identifying SARS-CoV-2 antiviral compounds by screening for small molecule inhibitors of Nsp3 papain-like protease” (Biochemical Journal, 2021)
Counter-ions that a name gives are not always drawn. Like-named read-outs stand apart in the source and are kept apart here.

Legend:
[1] = target: T1, SARS-CoV-2 PLpro (nsp3 1564–1878) (Severe acute respiratory syndrome coronavirus 2, UniProt P0DTD1); assay: biochemical; parameters: FRET-quenched peptide (Pro3) cleavage by PLpro, 10 min pre-incubation, slope over 20 min, normalised to no-compound control; conditions: low concentration screen, read-out: % of control remaining
[2] = target: T1, SARS-CoV-2 PLpro (nsp3 1564–1878); assay: biochemical; parameters: FRET-quenched peptide (Pro3) cleavage by PLpro, 10 min pre-incubation, slope over 20 min, normalised to no-compound control; conditions: high concentration screen, read-out: % of control remaining

C=C1C[C@H]2[C@@H]3C=C(C)C4=CC(=O)CC[C@]4(C)[C@H]3CC[C@]2(C)[C@@]1(OC(C)=O)C(C)=O [Melengestrol Acetate]
remaining activity at 1.25 µM ([1]; Well no.=2238): 99.1%
remaining activity at 3.75 µM ([2]; Well no.=2238): 99.4%

Cc1cnc(NC(=O)C2=C(O)c3ccccc3S(=O)(=O)N2C)s1 [Meloxicam sodium]
remaining activity at 1.25 µM ([1]; Well no.=974): 98.2%
remaining activity at 3.75 µM ([2]; Well no.=974): 99.2%

Cc1cnc(NC(=O)C2=C(O)c3ccccc3S(=O)(=O)N2C)s1 [Meloxicam]
remaining activity at 1.25 µM ([1]; Well no.=1578): 94.4%
remaining activity at 3.75 µM ([2]; Well no.=1578): 96.6%

N[C@@H](Cc1ccc(N(CCCl)CCCl)cc1)C(=O)O [Melphalan]
remaining activity at 1.25 µM ([1]; Well no.=1112): 94.4%
remaining activity at 1.25 µM ([1]; Well no.=1953): 100%
remaining activity at 3.75 µM ([2]; Well no.=1112): 94.4%

CC12CC3CC(C)(C1)CC(N)(C3)C2 [Memantine hydrochloride]
remaining activity at 1.25 µM ([1]; Well no.=1083): 97.8%
remaining activity at 3.75 µM ([2]; Well no.=1083): 99.3%

CC12CC3CC(C)(C1)CC(N)(C3)C2 [Memantine.HCl]
remaining activity at 1.25 µM ([1]; Well no.=1887): 94.9%
remaining activity at 3.75 µM ([2]; Well no.=1887): 95.2%

CC1=CC(=O)c2ccccc2C1=O [Menadione]
remaining activity at 1.25 µM ([1]; Well no.=3372): 98.5%
remaining activity at 1.25 µM ([1]; Well no.=6251): 99.2%
remaining activity at 3.75 µM ([2]; Well no.=3372): 96.5%
remaining activity at 3.75 µM ([2]; Well no.=6251): 101%

C[N+]1(C)CCCC(OC(=O)C(O)(c2ccccc2)c2ccccc2)C1 (stereo not shown) [Mepenzolate (Bromide)]
remaining activity at 1.25 µM ([1]; Well no.=7911): 102%
remaining activity at 3.75 µM ([2]; Well no.=7911): 100%

CCC1(c2ccccc2)NC(=O)N(C)C1=O (stereo not shown) [Mephenytoin]
remaining activity at 1.25 µM ([1]; Well no.=1774): 99.1%
remaining activity at 3.75 µM ([2]; Well no.=1774): 99.4%

Cc1cccc(C)c1NC(=O)C1CCCCN1C (stereo not shown) [Mepivacaine HCl]
remaining activity at 1.25 µM ([1]; Well no.=4981): 99.3%
remaining activity at 3.75 µM ([2]; Well no.=4981): 101%

C[C@H]1C[C@H]2[C@@H]3CCC4=CC(=O)C=C[C@]4(C)[C@H]3C(=O)C[C@]2(C)[C@@]1(O)C(=O)CO [Meprednisone]
remaining activity at 1.25 µM ([1]; Well no.=6509): 101%
remaining activity at 3.75 µM ([2]; Well no.=6509): 102%

CCC1(c2cccc(O)c2)CCCCN(C)C1 (stereo not shown) [Meptazinol (hydrochloride)]
remaining activity at 1.25 µM ([1]; Well no.=6511): 102%
remaining activity at 3.75 µM ([2]; Well no.=6511): 98.2%

CCC1(c2cccc(O)c2)CCCCN(C)C1 (stereo not shown) [Meptazinol HCl]
remaining activity at 1.25 µM ([1]; Well no.=4636): 93.5%
remaining activity at 3.75 µM ([2]; Well no.=4636): 90.6%

COc1ccc(CN(CCN(C)C)c2ccccn2)cc1 [Mepyramine maleate]
remaining activity at 1.25 µM ([1]; Well no.=1843): 98.2%
remaining activity at 3.75 µM ([2]; Well no.=1843): 98.2%

COc1ccc(O)cc1 [Mequinol]
remaining activity at 1.25 µM ([1]; Well no.=4736): 100%
remaining activity at 3.75 µM ([2]; Well no.=4736): 99.8%

S=c1[nH]cnc2nc[nH]c12 [Mercaptopurine]
remaining activity at 1.25 µM ([1]; Well no.=4771): 104%
remaining activity at 3.75 µM ([2]; Well no.=4771): 105%

C[C@@H](O)[C@H]1C(=O)N2C(C(=O)O)=C(S[C@@H]3CN[C@H](C(=O)N(C)C)C3)[C@H](C)[C@H]12 [Meropenem]
remaining activity at 1.25 µM ([1]; Well no.=1973): 103%
remaining activity at 3.75 µM ([2]; Well no.=1973): 103%

CN1CCCCC1CCN1c2ccccc2Sc2ccc([S+](C)[O-])cc21 (stereo not shown) [Mesoridazine besylate]
remaining activity at 1.25 µM ([1]; Well no.=2110): 97.7%
remaining activity at 3.75 µM ([2]; Well no.=2110): 99.5%

C#C[C@]1(O)CC[C@H]2[C@@H]3CCc4cc(OC)ccc4[C@H]3CC[C@@]21C [Mestranol]
remaining activity at 1.25 µM ([1]; Well no.=4768): 101%
remaining activity at 3.75 µM ([2]; Well no.=4768): 102%

CN1C[C@@H](NS(=O)(=O)N(C)C)C[C@@H]2c3cccc4c3c(cn4C)C[C@H]21 [Mesulergine hydrochloride]
remaining activity at 1.25 µM ([1]; Well no.=897): 106%
remaining activity at 3.75 µM ([2]; Well no.=897): 105%

Cc1ncc(CO)c(CO)c1O [Metadoxine]
remaining activity at 1.25 µM ([1]; Well no.=8662): 96.1%
remaining activity at 3.75 µM ([2]; Well no.=8662): 93.3%

S=C=Nc1cccc(C2(N3CCCCC3)CCCCC2)c1 [Metaphit methanesulfonate]
remaining activity at 1.25 µM ([1]; Well no.=991): 98.8%
remaining activity at 3.75 µM ([2]; Well no.=991): 98.9%

CC(C)NCC(O)c1cc(O)cc(O)c1 (stereo not shown) [Metaproterenol hemisulfate]
remaining activity at 1.25 µM ([1]; Well no.=826): 104%
remaining activity at 3.75 µM ([2]; Well no.=826): 100%

C[C@H](N)[C@H](O)c1cccc(O)c1 [Metaraminol (tartrate)]
remaining activity at 1.25 µM ([1]; Well no.=6417): 103%
remaining activity at 3.75 µM ([2]; Well no.=6417): 99.6%

CN1C[C@H](CNC(=O)OCc2ccccc2)C[C@@H]2c3cccc4c3c(cn4C)C[C@H]21 [Metergoline]
remaining activity at 1.25 µM ([1]; Well no.=782): 99.4%
remaining activity at 3.75 µM ([2]; Well no.=782): 100%

CN(C)C(=N)NC(=N)N [Metformin HCl]
remaining activity at 1.25 µM ([1]; Well no.=8430): 94.8%
remaining activity at 3.75 µM ([2]; Well no.=8430): 94.9%

CN(C)C(=N)NC(=N)N [Metformin]
remaining activity at 1.25 µM ([1]; Well no.=1627): 103%
remaining activity at 3.75 µM ([2]; Well no.=1627): 103%

CC(=O)OC(C)C[N+](C)(C)C (stereo not shown) [Methacholine (chloride)]
remaining activity at 1.25 µM ([1]; Well no.=6323): 100%
remaining activity at 3.75 µM ([2]; Well no.=6323): 98.1%

CC(=O)/N=c1/sc(S(N)(=O)=O)nn1C [Methazolamide]
remaining activity at 1.25 µM ([1]; Well no.=4686): 100%
remaining activity at 3.75 µM ([2]; Well no.=4686): 98.7%

C1N2CN3CN1CN(C2)C3 [Methenamine (Mandelamine)]
remaining activity at 1.25 µM ([1]; Well no.=4975): 96.3%
remaining activity at 3.75 µM ([2]; Well no.=4975): 96.7%

COc1cccc(OC)c1C(=O)N[C@@H]1C(=O)N2[C@@H]1SC(C)(C)[C@@H]2C(=O)O [Methicillin (sodium salt)]
remaining activity at 1.25 µM ([1]; Well no.=7448): 100%
remaining activity at 3.75 µM ([2]; Well no.=7448): 99.6%

Cn1ccnc1S [Methimazole]
remaining activity at 1.25 µM ([1]; Well no.=1961): 92.6%
remaining activity at 3.75 µM ([2]; Well no.=1961): 94.6%

CSc1ccc2c(c1)C(N1CCN(C)CC1)Cc1ccccc1S2 (stereo not shown) [Methiothepin mesylate]
remaining activity at 1.25 µM ([1]; Well no.=801): 99.9%
remaining activity at 3.75 µM ([2]; Well no.=801): 101%

COc1ccccc1OCC(O)COC(N)=O (stereo not shown) [Methocarbamol]
remaining activity at 1.25 µM ([1]; Well no.=8238): 98%
remaining activity at 3.75 µM ([2]; Well no.=8238): 94.6%

COc1ccccc1CNCCCCCCNCCCCCCCCNCCCCCCNCc1ccccc1OC [Methoctramine tetrahydrochloride]
remaining activity at 1.25 µM ([1]; Well no.=1085): 102%
remaining activity at 3.75 µM ([2]; Well no.=1085): 102%

COC(C)(C)CCCC(C)C/C=C/C(C)=C/C(=O)O (stereo not shown) [Methoprene acid]
remaining activity at 1.25 µM ([1]; Well no.=4438): 98.3%
remaining activity at 3.75 µM ([2]; Well no.=4438): 100%

CN(Cc1cnc2nc(N)nc(N)c2n1)c1ccc(C(=O)N[C@@H](CCC(=O)O)C(=O)O)cc1 [Methotrexate]
remaining activity at 1.25 µM ([1]; Well no.=69): 94.1%
remaining activity at 1.25 µM ([1]; Well no.=7352): 94.4%
remaining activity at 3.75 µM ([2]; Well no.=69): 95.5%
remaining activity at 3.75 µM ([2]; Well no.=7352): 97.6%
